From patent US4638070A, “Heterocyclic amino-alcohol derivatives” (Continental Pharma, priority 1980, dated 1987)

Legend:
[1] = test system: guinea-pig ileum (histamine contractions); assay: Antispasmodic activity in vitro, contractions caused by histamine; settings: added 15 minutes before spasm-producing agent
Experimental: (§1) (4) The antispasmodic activity was measured in vitro, on guinea-pig ileum, the contractions of which were caused by histammne (Hist.), acetylcholine (Achol) or barium chloride (BaCl2). The tested products were added to perfusion bath 15 minutes before the spasm-producing agents.
(§2) The dose is given in micograms (μg) per ml of bath causing complete spasm inhibition.

[2] = test system: guinea-pig ileum (acetylcholine contractions); assay: Antispasmodic activity in vitro, contractions caused by acetylcholine; settings: added 15 minutes before spasm-producing agent
Experimental: as §1, §2

femoral artery = assay: Vasodilator activity, femoral artery (technique of perfused paw); format: in vivo; set-up: key: O: no action; +: slight activity; ++: effect equal to half the effect of papaverine; +++: effect equal to that of papaverine; ++++: effect higher than that of papaverine; settings: intra-arterial, 30 mg/kg, anaesthetized dog, vs papaverine at same dose
Experimental: (3) The vasodilator activity was measured at the level of femoral artery on anaesthetized dog (technique of perfused paw). The tested substances were given intra-arterially at the rate of 30 mg/kg. Results are expressed with respect to papaverine tested at the same dose.
++: effect equal to half the effect of papaverine.
+++: effect equal to that of papaverine.
++++: effect higher than that of papaverine.

[3] = Acute toxicity, oral, LD50 (Litchfield and Wilcoxon); settings: mouse, in vivo, fasted male mice, confidence limits p=95% in brackets
Experimental: (1) The acute toxicity was determined on fasted male mice. The tested substances were orally administered and LD50 values (lethal dose for 50% of animals) were calculated according to the method of Litchfield and Wilcoxon (J. Pharmacol. exp. Ther. 96, 94-113, 1949). These LD50 values are given in mg/kg and also, when possible, with their confidence limits for p=95%.

[4] = test system: unanaesthetized, hypertension-suffering rat; assay: Antihypertensive activity (systolic arterial pressure), oral; format: in vivo; settings: 60 mg/kg, hypertensive rat, 3 hours
Procedure, shortened: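 Conscious hypertensive rats given compound orally at 60 mg/kg; systolic arterial pressure measured every 30 min for 2 h pre-dose and 3 h post-dose. Scored O (no fall), + (<10 mm Hg), ++ (10–20 mm Hg), +++ (>20 mm Hg).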

[5] = test system: guinea-pig ileum (barium chloride contractions); assay: Antispasmodic activity in vitro, contractions caused by barium chloride; settings: added 15 minutes before spasm-producing agent
Experimental: as §1, §2

Compound: CC(NCCOc1ccccc1)C(O)c1ccc2c(c1)CCCS2 (stereo not drawn) [No 20]
- ANTISPASMODIC ACTIVITY HIST. (dose causing complete spasm inhibition) [1]: 8.3 μg per ml
- ANTISPASMODIC ACTIVITY ACHOL (dose causing complete spasm inhibition) [2]: 3.3 μg per ml
- VASODILATOR ACTIVITY (femoral artery): +++
- LD50 [3]: > 4000 mg/kg
- ANTIHYPERTENSIVE ACTIVITY [4]: +++ (reduction higher than 20 mm Hg)
- ANTISPASMODIC ACTIVITY BaCl2 (dose causing complete spasm inhibition) [5]: 8.3 μg per ml

Compound: 1-(5-indanyl)-2-(4-phenylbutylamino)-1-propanol [No 163]
- ANTISPASMODIC ACTIVITY HIST. (dose causing complete spasm inhibition) [1]: 0.33 μg per ml
- ANTISPASMODIC ACTIVITY ACHOL (dose causing complete spasm inhibition) [2]: 0.8 μg per ml
- VASODILATOR ACTIVITY (femoral artery): ++++
- ANTIHYPERTENSIVE ACTIVITY [4]: +++ (reduction higher than 20 mm Hg)
- ANTISPASMODIC ACTIVITY BaCl2 (dose causing complete spasm inhibition) [5]: 0.8 μg per ml

Compound: CC(NCCCCSc1ccccc1)C(O)c1ccc2c(c1)CCCS2 (stereo not drawn) [No 25]
- ANTISPASMODIC ACTIVITY HIST. (dose causing complete spasm inhibition) [1]: 0.8 μg per ml
- ANTISPASMODIC ACTIVITY ACHOL (dose causing complete spasm inhibition) [2]: 0.8 μg per ml
- LD50 [3]: > 4000 mg/kg
- ANTISPASMODIC ACTIVITY BaCl2 (dose causing complete spasm inhibition) [5]: 0.8 μg per ml

Compound: CCCCCCCCNC(C)C(O)c1ccc2c(c1)CCCS2 (stereo not drawn) [No 1, 1-(6-Thiochromanyl)-2-n-octylamino-1-propanol]
- ANTISPASMODIC ACTIVITY HIST. (dose causing complete spasm inhibition) [1]: 3.3 μg per ml
- ANTISPASMODIC ACTIVITY ACHOL (dose causing complete spasm inhibition) [2]: 3.3 μg per ml
- VASODILATOR ACTIVITY (femoral artery): ++++
- LD50 [3]: > 4000 mg/kg
- ANTIHYPERTENSIVE ACTIVITY [4]: ++ (reduction of 10 to 20 mm Hg)
- ANTISPASMODIC ACTIVITY BaCl2 (dose causing complete spasm inhibition) [5]: 1.7 μg per ml

Compound: CC1Cc2cc(C(O)C(C)NCCCCc3ccccc3)ccc2S1 (stereo not drawn) [No 19]
- ANTISPASMODIC ACTIVITY HIST. (dose causing complete spasm inhibition) [1]: 0.8 μg per ml
- ANTISPASMODIC ACTIVITY ACHOL (dose causing complete spasm inhibition) [2]: 1.7 μg per ml
- VASODILATOR ACTIVITY (femoral artery): +++
- LD50 [3]: 1550 mg/kg
- ANTIHYPERTENSIVE ACTIVITY [4]: +++ (reduction higher than 20 mm Hg)
- ANTISPASMODIC ACTIVITY BaCl2 (dose causing complete spasm inhibition) [5]: 0.8 μg per ml

Compound: CCCCCCCCNC(C)C(O)c1ccc2c(c1)CCC(C)S2 (stereo not drawn) [No 4]
- VASODILATOR ACTIVITY (femoral artery): +++
- LD50 [3]: 4000 mg/kg
- ANTISPASMODIC ACTIVITY BaCl2 (dose causing complete spasm inhibition) [5]: > 16.7 μg per ml

Compound: Cc1ccccc1N1CCN(C(C)C(O)c2ccc3c(c2)CCC(C)S3)CC1 (stereo not drawn) [No 10]
- ANTISPASMODIC ACTIVITY HIST. (dose causing complete spasm inhibition) [1]: 0.33 μg per ml
- ANTISPASMODIC ACTIVITY ACHOL (dose causing complete spasm inhibition) [2]: 16.7 μg per ml
- VASODILATOR ACTIVITY (femoral artery): ++
- LD50 [3]: > 4000 mg/kg
- ANTIHYPERTENSIVE ACTIVITY [4]: +++ (reduction higher than 20 mm Hg)
- ANTISPASMODIC ACTIVITY BaCl2 (dose causing complete spasm inhibition) [5]: 8.3 μg per ml

Compound: CCCCCCCCNC(C)C(O)c1ccc2c(c1)CCCCS2 (stereo not drawn) [No 11]
- ANTISPASMODIC ACTIVITY HIST. (dose causing complete spasm inhibition) [1]: 0.8 μg per ml
- ANTISPASMODIC ACTIVITY ACHOL (dose causing complete spasm inhibition) [2]: 1.7 μg per ml
- VASODILATOR ACTIVITY (femoral artery): +++
- LD50 [3]: 3300 mg/kg
- ANTISPASMODIC ACTIVITY BaCl2 (dose causing complete spasm inhibition) [5]: 3.3 μg per ml

Compound: CC(NCCCc1ccccc1)C(O)c1ccc2c(c1)CCCS2 (stereo not drawn) [No 17]
- ANTISPASMODIC ACTIVITY HIST. (dose causing complete spasm inhibition) [1]: 0.8 μg per ml
- ANTISPASMODIC ACTIVITY ACHOL (dose causing complete spasm inhibition) [2]: 1.7 μg per ml
- VASODILATOR ACTIVITY (femoral artery): +++
- LD50 [3]: > 4000 mg/kg
- ANTIHYPERTENSIVE ACTIVITY [4]: +++ (reduction higher than 20 mm Hg)
- ANTISPASMODIC ACTIVITY BaCl2 (dose causing complete spasm inhibition) [5]: 1.7 μg per ml

Compound: CC1CCc2cc(C(O)C(C)NCCc3ccccc3)ccc2S1 (stereo not drawn) [No 9]
- ANTISPASMODIC ACTIVITY HIST. (dose causing complete spasm inhibition) [1]: 3.3 μg per ml
- ANTISPASMODIC ACTIVITY ACHOL (dose causing complete spasm inhibition) [2]: 3.3 μg per ml
- VASODILATOR ACTIVITY (femoral artery): +++
- LD50 [3]: ~2750 mg/kg
- ANTISPASMODIC ACTIVITY BaCl2 (dose causing complete spasm inhibition) [5]: 0.8 μg per ml

Compound: CC(C(O)c1ccc2c(c1)CCCS2)N1CCC(Cc2ccccc2)CC1 (stereo not drawn) [No 26]
- ANTISPASMODIC ACTIVITY HIST. (dose causing complete spasm inhibition) [1]: 0.017 μg per ml
- ANTISPASMODIC ACTIVITY ACHOL (dose causing complete spasm inhibition) [2]: 1.7 μg per ml
- ANTIHYPERTENSIVE ACTIVITY [4]: +++ (reduction higher than 20 mm Hg)
- ANTISPASMODIC ACTIVITY BaCl2 (dose causing complete spasm inhibition) [5]: 0.8 μg per ml

Compound: CCCCCCCCNC(C)C(O)c1ccc2c(c1)CCS2 (stereo not drawn) [No 3, 1-(2,3-dihydro-5-benzo[b]thienyl)-2-n-octylamino-1-propanol]
- ANTISPASMODIC ACTIVITY HIST. (dose causing complete spasm inhibition) [1]: 8.3 μg per ml
- ANTISPASMODIC ACTIVITY ACHOL (dose causing complete spasm inhibition) [2]: 16.7 μg per ml
- VASODILATOR ACTIVITY (femoral artery): +++
- LD50 [3]: 4450 mg/kg
- ANTIHYPERTENSIVE ACTIVITY [4]: +++ (reduction higher than 20 mm Hg)
- ANTISPASMODIC ACTIVITY BaCl2 (dose causing complete spasm inhibition) [5]: 8.3 μg per ml

Compound: CC(NCCC(c1ccccc1)c1ccccc1)C(O)c1ccc2c(c1)CCCS2 (stereo not drawn) [No 16]
- ANTISPASMODIC ACTIVITY HIST. (dose causing complete spasm inhibition) [1]: 0.3 μg per ml
- ANTISPASMODIC ACTIVITY ACHOL (dose causing complete spasm inhibition) [2]: 0.8 μg per ml
- VASODILATOR ACTIVITY (femoral artery): +++
- LD50 [3]: > 4000 mg/kg
- ANTIHYPERTENSIVE ACTIVITY [4]: ++ (reduction of 10 to 20 mm Hg)
- ANTISPASMODIC ACTIVITY BaCl2 (dose causing complete spasm inhibition) [5]: 0.33 μg per ml

Compound: CC(NCCCCOc1ccccc1)C(O)c1ccc2c(c1)CCCS2 (stereo not drawn) [No 24]
- ANTISPASMODIC ACTIVITY HIST. (dose causing complete spasm inhibition) [1]: 0.33 μg per ml
- ANTISPASMODIC ACTIVITY ACHOL (dose causing complete spasm inhibition) [2]: 1.7 μg per ml
- VASODILATOR ACTIVITY (femoral artery): +++
- LD50 [3]: > 4000 mg/kg
- ANTISPASMODIC ACTIVITY BaCl2 (dose causing complete spasm inhibition) [5]: 1.7 μg per ml

Compound: CC(NCCCCc1ccccc1)C(O)c1ccc2c(c1)CCCS2 (stereo not drawn) [No 2]
- ANTISPASMODIC ACTIVITY HIST. (dose causing complete spasm inhibition) [1]: 1.7 μg per ml
- ANTISPASMODIC ACTIVITY ACHOL (dose causing complete spasm inhibition) [2]: 8.3 μg per ml
- VASODILATOR ACTIVITY (femoral artery): ++++
- LD50 [3]: > 4000 mg/kg
- ANTIHYPERTENSIVE ACTIVITY [4]: +++ (reduction higher than 20 mm Hg)
- ANTISPASMODIC ACTIVITY BaCl2 (dose causing complete spasm inhibition) [5]: 16.7 μg per ml

Compound: CC(NC1CCCCCCC1)C(O)c1ccc2c(c1)CCS2 (stereo not drawn) [No 28]
- ANTISPASMODIC ACTIVITY HIST. (dose causing complete spasm inhibition) [1]: 0.8 μg per ml
- ANTISPASMODIC ACTIVITY ACHOL (dose causing complete spasm inhibition) [2]: 1.7 μg per ml
- VASODILATOR ACTIVITY (femoral artery): +
- LD50 [3]: 580 mg/kg
- ANTISPASMODIC ACTIVITY BaCl2 (dose causing complete spasm inhibition) [5]: 1.7 μg per ml

Compound: COc1ccc(CCNC(C)C(O)c2ccc3c(c2)CCCS3)cc1OC (stereo not drawn) [No 22]
- ANTISPASMODIC ACTIVITY HIST. (dose causing complete spasm inhibition) [1]: 3.3 μg per ml
- ANTISPASMODIC ACTIVITY ACHOL (dose causing complete spasm inhibition) [2]: 8.3 μg per ml
- LD50 [3]: 3700 mg/kg
- ANTISPASMODIC ACTIVITY BaCl2 (dose causing complete spasm inhibition) [5]: 8.3 μg per ml

Compound: CC(NCCCCc1ccc(Cl)cc1)C(O)c1ccc2c(c1)CCCS2 (stereo not drawn) [No 23]
- ANTISPASMODIC ACTIVITY HIST. (dose causing complete spasm inhibition) [1]: 0.8 μg per ml
- ANTISPASMODIC ACTIVITY ACHOL (dose causing complete spasm inhibition) [2]: 1.7 μg per ml
- VASODILATOR ACTIVITY (femoral artery): ++++
- LD50 [3]: ~2100 mg/kg
- ANTIHYPERTENSIVE ACTIVITY [4]: +++ (reduction higher than 20 mm Hg)
- ANTISPASMODIC ACTIVITY BaCl2 (dose causing complete spasm inhibition) [5]: 0.8 μg per ml

Compound: Cc1ccccc1N1CCN(C(C)C(O)c2ccc3c(c2)CCCS3)CC1 (stereo not drawn) [No 15]
- ANTISPASMODIC ACTIVITY HIST. (dose causing complete spasm inhibition) [1]: 0.8 μg per ml
- ANTISPASMODIC ACTIVITY ACHOL (dose causing complete spasm inhibition) [2]: 3.3 μg per ml
- VASODILATOR ACTIVITY (femoral artery): +++
- ANTIHYPERTENSIVE ACTIVITY [4]: +++ (reduction higher than 20 mm Hg)
- ANTISPASMODIC ACTIVITY BaCl2 (dose causing complete spasm inhibition) [5]: > 16.7 μg per ml
